Our source for the TGI and GI50 values is PubChem BioAssay (NCI).

Each structure is given as a SMILES string.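 Protocol summary: plate cells (96-well), add compound at 5 concentrations, incubate 48 h, interpolate endpoints linearly. Here, GI50 denotes the concentration required for 50% inhibition of growth. The concentration for full growth arrest is given as TGI.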

Among the test systems are LOX IMVI melanoma; NCI-H226 lung; A549 NSCLC; SW-620 colon; RXF 393 renal; MCF7 breast; UACC-257 melanoma; CCRF-CEM leukemia; SK-MEL-28 melanoma; NCI-H23 lung; SNB-75 CNS.
Assay in all cases: NCI tumour cell line growth inhibition, 48 h

Consider `O=c1c2cc(I)ccc2nc(-c2cccs2)n1Nc1ccccc1`, for which the TGI in the test with LOX IMVI melanoma, with NCI-H226 lung, in the test with A549 NSCLC, in the test with SW-620 colon, in the test with RXF 393 renal and in the test on MCF7 breast was greater than 100 µM each time. In addition, the TGI in the test on UACC-257 melanoma was greater than 100 µM; in the test with CCRF-CEM leukemia, greater than 100 µM; in the test on SK-MEL-28 melanoma, greater than 100 µM; with NCI-H23 lung it was 91 µM. Also, the GI50 in the test with MCF7 breast was 1.99 µM; in the test on UACC-257 melanoma, 32.3 µM; in the test on CCRF-CEM leukemia it was 50.7 µM.

With `COc1ccc2c(c1)c(Cc1c(C)n(C)c3ccc(OC)cc13)c(C)n2C`, the TGI with SNB-75 CNS, in the test on LOX IMVI melanoma, in the test on NCI-H226 lung, in the test with A549 NSCLC, with SW-620 colon and with RXF 393 renal was greater than 100 µM throughout. For the same molecule, the TGI with UACC-257 melanoma, in the test with CCRF-CEM leukemia, in the test on SK-MEL-28 melanoma and in the test on NCI-H23 lung was greater than 100 µM throughout.

For `COc1cc(/C=C2\CCCC3=C2NC(N)=NC3c2cc(OC)c(OC)c(OC)c2)cc(OC)c1OC` (stereo unspecified), the GI50 in the test on SNB-75 CNS was 8.02 µM; in the test on SW-620 colon, 1.08 µM; in the test on MCF7 breast, 1.49 µM; in the test on UACC-257 melanoma it was 1.25 µM; with CCRF-CEM leukemia, 0.419 µM. Besides, the TGI with SNB-75 CNS was greater than 100 µM; with SW-620 colon, 3.51 µM; in the test on MCF7 breast, greater than 100 µM; in the test with UACC-257 melanoma, 4.35 µM; with CCRF-CEM leukemia, 7.31 µM.

`CCn1c(=O)c2c(=O)[nH][nH]c2c2ccccc21`: the TGI with SNB-75 CNS, in the test on LOX IMVI melanoma, in the test with NCI-H226 lung, in the test on A549 NSCLC, with SW-620 colon and in the test with MCF7 breast was greater than 100 µM in each case. Further, the TGI in the test with UACC-257 melanoma, in the test with CCRF-CEM leukemia, with SK-MEL-28 melanoma and in the test on NCI-H23 lung was greater than 100 µM in each case.

`CC(=O)Nc1ccc(-c2nnc(SCC(=O)Nc3ccccc3Cl)o2)cc1`: the TGI in the test with SNB-75 CNS, with LOX IMVI melanoma, with NCI-H226 lung, with A549 NSCLC, in the test with SW-620 colon and with RXF 393 renal was greater than 100 µM throughout. Further, the TGI in the test on UACC-257 melanoma, in the test on CCRF-CEM leukemia, in the test with SK-MEL-28 melanoma and in the test on NCI-H23 lung was greater than 100 µM throughout.

As for `O=C(Cc1ccccc1)N/N=C(/CCN1CCCC1)CC(c1ccccc1)c1c(O)c2ccccc2oc1=O` (stereo unspecified), the TGI in the test with SNB-75 CNS was greater than 100 µM; in the test on LOX IMVI melanoma, 44.4 µM; in the test with NCI-H226 lung it was greater than 100 µM; in the test on A549 NSCLC it was greater than 100 µM; with SW-620 colon, greater than 100 µM; with MCF7 breast it was greater than 100 µM. For the same molecule, the TGI in the test with UACC-257 melanoma, with CCRF-CEM leukemia, with SK-MEL-28 melanoma and in the test with NCI-H23 lung was greater than 100 µM throughout.

With `CSC1=N/C(=C\c2cccs2)C(=O)N1CN1CCCCC1`, the TGI was greater than 100 µM in the test with SNB-75 CNS; 75.6 µM with LOX IMVI melanoma; greater than 100 µM in the test with NCI-H226 lung; greater than 100 µM in the test with A549 NSCLC; greater than 100 µM in the test on SW-620 colon; greater than 100 µM with MCF7 breast. Moreover, the TGI with CCRF-CEM leukemia, in the test with SK-MEL-28 melanoma and in the test with NCI-H23 lung was greater than 100 µM each time.

Consider `CC1C2CC(C(C3C(=O)C4CC3C(C)(C)C4C)C2=O)C1(C)C` (stereo unspecified), for which the TGI in the test on SNB-75 CNS, in the test on NCI-H226 lung, in the test with A549 NSCLC, in the test on SW-620 colon, in the test on RXF 393 renal and in the test on MCF7 breast was greater than 100 µM each time. The TGI with UACC-257 melanoma, with CCRF-CEM leukemia, in the test with SK-MEL-28 melanoma and with NCI-H23 lung was greater than 100 µM each time.

As to `CCOc1ccc(NCC(=O)N2CC(=O)Nc3ccccc32)cc1`, the TGI in the test with SNB-75 CNS, in the test with LOX IMVI melanoma, with NCI-H226 lung, in the test on A549 NSCLC, with SW-620 colon and with RXF 393 renal was greater than 100 µM in each case. Moreover, the TGI in the test on UACC-257 melanoma, in the test with CCRF-CEM leukemia, in the test with SK-MEL-28 melanoma and in the test on NCI-H23 lung was greater than 100 µM in each case.

With `CN(C(=O)C1=CCCCCC1)c1ccccc1I`, the TGI in the test on SNB-75 CNS was 79.7 µM; in the test on LOX IMVI melanoma, greater than 100 µM; with A549 NSCLC, greater than 100 µM; with SW-620 colon, greater than 100 µM; in the test with RXF 393 renal it was greater than 100 µM; in the test with MCF7 breast it was greater than 100 µM. The TGI in the test with UACC-257 melanoma, with CCRF-CEM leukemia, with SK-MEL-28 melanoma and in the test on NCI-H23 lung was greater than 100 µM throughout.

Regarding `COc1ccc(CCN2CCC(C#N)(c3ccc(OC)c(OC)c3)CC2)cc1OC`, the TGI with SNB-75 CNS, in the test on LOX IMVI melanoma, in the test with NCI-H226 lung, in the test on A549 NSCLC, in the test on SW-620 colon and in the test with RXF 393 renal was greater than 100 µM each time. Besides, the TGI in the test with UACC-257 melanoma, with CCRF-CEM leukemia, with SK-MEL-28 melanoma and in the test on NCI-H23 lung was greater than 100 µM throughout.

`Oc1cn(-c2ccc(Cl)cc2)nc1-c1nnc(Nc2ccccc2)o1`: the TGI in the test on SNB-75 CNS was 45.2 µM; with NCI-H226 lung, 31.4 µM; in the test on A549 NSCLC, 43.3 µM; with SW-620 colon, 41 µM; in the test with RXF 393 renal, 39.6 µM; with MCF7 breast, 33.9 µM. Further, the TGI in the test with UACC-257 melanoma was 43.5 µM; in the test with SK-MEL-28 melanoma, 34.9 µM; with NCI-H23 lung it was 27.3 µM.

With `Cc1nc2ccccc2nc1NS(=O)(=O)c1ccc(N)cc1`, the TGI in the test on SNB-75 CNS, in the test on LOX IMVI melanoma, in the test on NCI-H226 lung, in the test with A549 NSCLC, with SW-620 colon and in the test with RXF 393 renal was greater than 100 µM throughout. Further, the TGI with UACC-257 melanoma, with CCRF-CEM leukemia, in the test on SK-MEL-28 melanoma and in the test on NCI-H23 lung was greater than 100 µM in each case.
